Results from patent US6710088B2 (NPS Pharmaceuticals, Inc., priority 1996, dated 2004).
Where a name gives a salt, the structure may show the parent alone.

Target: T1, calcium receptor (Homo sapiens, UniProt P41180)
T1 construct: expressed in transfected cells; host or cells: HEK 293 4.0-7
T1 sequence (P41180 20-1078): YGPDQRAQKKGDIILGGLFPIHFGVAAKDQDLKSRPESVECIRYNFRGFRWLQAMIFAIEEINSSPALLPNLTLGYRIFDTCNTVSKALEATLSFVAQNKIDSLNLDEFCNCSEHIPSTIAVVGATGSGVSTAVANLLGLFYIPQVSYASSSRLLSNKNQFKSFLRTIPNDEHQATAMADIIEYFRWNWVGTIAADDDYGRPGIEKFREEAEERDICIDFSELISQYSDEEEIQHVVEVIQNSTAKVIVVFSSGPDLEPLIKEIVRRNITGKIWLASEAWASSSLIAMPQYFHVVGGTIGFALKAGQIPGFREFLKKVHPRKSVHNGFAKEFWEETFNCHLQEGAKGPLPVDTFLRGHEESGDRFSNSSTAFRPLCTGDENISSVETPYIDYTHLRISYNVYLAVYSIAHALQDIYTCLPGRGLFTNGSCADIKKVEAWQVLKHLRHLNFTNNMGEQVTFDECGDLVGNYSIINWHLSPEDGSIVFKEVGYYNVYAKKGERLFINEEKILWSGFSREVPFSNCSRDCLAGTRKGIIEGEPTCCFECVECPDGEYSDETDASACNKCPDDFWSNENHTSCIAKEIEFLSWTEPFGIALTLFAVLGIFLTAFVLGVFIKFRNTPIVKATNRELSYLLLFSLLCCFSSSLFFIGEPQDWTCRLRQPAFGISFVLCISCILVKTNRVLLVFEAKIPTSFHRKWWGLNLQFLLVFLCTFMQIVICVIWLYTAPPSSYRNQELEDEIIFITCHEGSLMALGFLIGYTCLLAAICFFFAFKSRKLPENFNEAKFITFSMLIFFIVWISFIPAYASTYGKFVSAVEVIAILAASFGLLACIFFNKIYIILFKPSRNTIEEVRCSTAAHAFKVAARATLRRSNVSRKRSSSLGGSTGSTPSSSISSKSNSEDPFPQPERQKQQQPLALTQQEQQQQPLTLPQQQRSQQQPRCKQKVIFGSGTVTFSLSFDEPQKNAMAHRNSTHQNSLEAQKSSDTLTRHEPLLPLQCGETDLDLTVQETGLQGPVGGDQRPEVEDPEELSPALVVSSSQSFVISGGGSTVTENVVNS
Test: Calcium receptor activity in recombinant HEK 293 4.0-7 cells (fluorescence of dye-loaded cells)
Assay type: cell-based
Conditions: recombinant HEK 293 4.0-7 cells containing a calcium receptor; 1 mM CaCl2, 1 mM MgCl2; fluorescence 340/510 nm
Experimental: Recombinant HEK 293 4.0-7 cells containing a calcium receptor were constructed as described by Rogers et al., J. Bone Miner. Res. 10 Suppl. 1:S483, 1995 (hereby incorporated by reference herein). The recombinant cells were loaded with fura-2 by incubating the cells in Dulbecco's modified Eagle's medium buffered with 20 mM HEPES containing about 5 μM […] for one hour at room temperature. Cells were then rinsed with Hank's balanced salt solution buffered with 20 mM HEPES containing 1 mM CaCl2 and 1 mM MgCl2. Compounds to be tested were then added to the cells and fluorescence was measured (excitation and emission wavelengths of 340 and 510 nm, respectively).

Row | Compound | EC50 [nM]
1 | COc1ccccc1C=CCN[C@H](C)c1cccc2ccccc12 [Compound 26J, hydrochloride] | 47
2 | C[C@@H](NCC=Cc1ccccc1)c1cccc2ccccc12 [Compound 26H, (R)-N-(3-phenyl-2-propenyl)-1-(1-naphthyl)ethylamine hydrochloride] | 36
3 | CCOc1ccc([C@@H](C)N[C@H](C)c2cccc3ccccc23)cc1C [Compound 26E, hydrochloride] | 77
4 | CC[C@@H](N[C@H](C)c1cccc2ccccc12)c1ccc(OC)c(C)c1 [Compound 26F, hydrochloride] | 15
5 | C[C@@H](N[C@H](C)c1cccc2ccccc12)c1ccc(I)cc1 [Compound 26D, hydrochloride] | 47
6 | CC(=Cc1ccccc1)CN[C@H](C)c1cccc2ccccc12 [Compound 26I, (R)-N-(2-methyl-3-phenyl-2-propenyl)-1-(1-naphthyl)ethylamine hydrochloride] | 126
7 | (R,R)-N-(1-Ethyl-4′-methoxy-3′-bromophenyl)-1-(1-naphthyl)ethylamine hydrochloride [Compound 26G] | 11
